# Experimental data published in US20200016118A1, “HDAC INHIBITOR IN COMBINATION WITH VEGF/VEGFR INTERACTION FOR CANCER THERAPY BASED ON PLATELET COUNT” (4SC AG, priority 2017, published 2020).
# Test system: advanced HCC
# Test: Phase I/II trial (Phase II part) of resminostat in combination with sorafenib versus sorafenib alone, first-line, overall survival by baseline platelet count
# Format: in vivo, human
# Protocol: A Phase I/II trial investigating resminostat in the indication of hepatocellular cancer (HCC) was conducted. The study was an open-label, multi-center Phase I/II study in patients with advanced HCC previously untreated with systemic chemotherapy (first-line therapy) to determine the MTD and to evaluate safety and efficacy of resminostat in combination with sorafenib. The study was conducted in Japan and Korea. The main eligibility criteria included a performance status of ECOG 0-1, adequate hepatic, renal, cardiac and bone marrow function and a life expectancy of more than 12 weeks.
# In the Phase II part, a total of 170 patients were enrolled. Patients were randomly allocated to either the combination group (86 patients) or the monotherapy group (84 patients) at the RD determined from phase I. Randomization was performed with the minimization method using the following 2 factors as stratification factors: study site; and vascular invasion (presence or absence). The trial is registered at www.clinicaltrials.jp (Identifier: JapicCTI-132124) and www.clinicalTrials.gov (NCT02400788). Overall Survival (OS) were evaluated by the Kaplan-Meier method. A point estimate of the hazard ratio was calculated for each subgroup categorized by baseline platelet level as well as the 95% confidence interval of the estimate.
# Treatment regimen: Mono group: A cycle was defined as 14 days. Sorafenib (800 mg) was given daily. Combination group: A cycle was defined as 14 days. Sorafenib (800 mg) was given daily. Resminostat (400 mg) was given daily on Days 1 to 5 and suspended on Days 6 to 14.
# Blood was collected into a blood collection tubes precharged with EDTA-2K and then immediately inverted 4-5 times to mix. The mixed sample was stored refrigerated for further analysis.
# Platelet count analysis was conducted with the Sheath Flow DC Detection method (Sysmex, Kobe, Japan). A method is described in detail in WALTERS J., GARRITY P. (2000): Performance Evaluation of the Sysmex XE-2100 Hematology Analyzer; Laboratory Hematology 6: 83-92. […]
structure (smiles),measurement,setting,value
"CNC(=O)c1cc(Oc2ccc(NC(=O)Nc3ccc(Cl)c(C(F)(F)F)c3)cc2)ccn1 [sorafenib, 4-[4-[[4-chloro-3-(trifluoromethyl)phenyl]carbamoylamino]phenoxy]-N-methyl-pyridine-2-carboxamide]","overall survival (OS), in words",patients with platelet count of about 150000 platelets/μL or above compared to below about 150000 (FIG. 1),shorter overall survival
same,median overall survival (mOS),patients with platelet count ≥151×10^3/μL (median) at baseline,5.1 months
same,median overall survival (mOS),patients with platelet level below median (<151×10^3/μL),17.5 months
